Laboratory results as given in US20250145575A1, “MACROMOLECULE-SUPPORTED 8-SULFONYL-BENZAZEPINE COMPOUNDS AND THEIR USES” (BOLT BIOTHERAPEUTICS, INC., priority 2022, published 2025).

Assays:
[1] = biological target: T1, human TLR7 (Homo sapiens, UniProt Q9NYK1); assay: HEK293 NFKB reporter assay, human TLR7; type: cell-based; conditions: HEK293 reporter cells expressing human TLR7; read-out: HEK293 hTLR7 EC50
T1 construct: host or cells: HEK293 reporter cells
T1 sequence (Q9NYK1 27-1049): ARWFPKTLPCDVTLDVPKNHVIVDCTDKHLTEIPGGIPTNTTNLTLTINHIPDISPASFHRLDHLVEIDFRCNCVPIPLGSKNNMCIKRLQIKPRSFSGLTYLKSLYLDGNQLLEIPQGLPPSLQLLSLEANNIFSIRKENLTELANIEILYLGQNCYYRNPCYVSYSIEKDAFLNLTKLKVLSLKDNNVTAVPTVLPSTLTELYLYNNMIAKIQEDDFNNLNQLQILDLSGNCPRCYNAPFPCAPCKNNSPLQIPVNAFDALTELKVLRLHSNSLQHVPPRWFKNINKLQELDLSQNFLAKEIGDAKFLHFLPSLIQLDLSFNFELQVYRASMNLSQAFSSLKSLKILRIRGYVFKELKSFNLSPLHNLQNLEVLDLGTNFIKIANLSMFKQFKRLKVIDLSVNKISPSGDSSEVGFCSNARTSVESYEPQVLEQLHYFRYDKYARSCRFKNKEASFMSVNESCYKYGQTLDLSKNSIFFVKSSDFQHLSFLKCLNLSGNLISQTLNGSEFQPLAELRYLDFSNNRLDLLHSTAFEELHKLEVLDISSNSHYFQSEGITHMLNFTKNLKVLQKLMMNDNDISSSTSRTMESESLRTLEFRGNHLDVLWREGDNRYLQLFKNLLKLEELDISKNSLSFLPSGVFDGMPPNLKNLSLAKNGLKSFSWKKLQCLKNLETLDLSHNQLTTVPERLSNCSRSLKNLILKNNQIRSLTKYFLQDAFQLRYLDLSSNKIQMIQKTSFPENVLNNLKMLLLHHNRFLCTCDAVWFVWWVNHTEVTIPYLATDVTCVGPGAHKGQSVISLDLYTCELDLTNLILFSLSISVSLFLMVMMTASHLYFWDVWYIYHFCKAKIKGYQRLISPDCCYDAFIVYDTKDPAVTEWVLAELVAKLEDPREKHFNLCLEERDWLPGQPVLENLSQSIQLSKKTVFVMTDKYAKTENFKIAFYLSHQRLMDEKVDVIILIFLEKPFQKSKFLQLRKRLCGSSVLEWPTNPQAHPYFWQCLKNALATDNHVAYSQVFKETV
Protocol: (§1) Exemplary 8-sulfonyl-2-aminobenzazepine compounds (8SO2Bz) of the invention were synthesized, purified, and characterized by mass spectrometry and shown to have the expected mass. Additional experimental procedures are found in the Examples. Activity against HEK293 NFKB reporter cells expressing human TLR7 or human TLR8 was measured according to Example 202.
(§2) Example 202 HEK Reporter Assay
(§3) HEK293 reporter cells expressing human TLR7 or human TLR8 were purchased from Invivogen and vendor protocols were followed for cellular propagation and experimentation. Briefly, cells were grown to 80-85% confluence at 5% CO2 in DMEM supplemented with 10% FBS, Zeocin, and Blasticidin. Cells were then seeded in 96-well flat plates at 4×10^4 cells/well with substrate containing HEK detection medium and immunostimulatory molecules (MSC). Activity was measured using a plate reader at 620-655 nm wavelength.

[2] = biological target: T2, human TLR8 (Homo sapiens, UniProt Q9NR97); assay: HEK293 NFKB reporter assay, human TLR8; type: cell-based; conditions: HEK293 reporter cells expressing human TLR8; read-out: HEK293 hTLR8 EC50
T2 construct: host or cells: HEK293 reporter cells
T2 sequence (Q9NR97 27-1041): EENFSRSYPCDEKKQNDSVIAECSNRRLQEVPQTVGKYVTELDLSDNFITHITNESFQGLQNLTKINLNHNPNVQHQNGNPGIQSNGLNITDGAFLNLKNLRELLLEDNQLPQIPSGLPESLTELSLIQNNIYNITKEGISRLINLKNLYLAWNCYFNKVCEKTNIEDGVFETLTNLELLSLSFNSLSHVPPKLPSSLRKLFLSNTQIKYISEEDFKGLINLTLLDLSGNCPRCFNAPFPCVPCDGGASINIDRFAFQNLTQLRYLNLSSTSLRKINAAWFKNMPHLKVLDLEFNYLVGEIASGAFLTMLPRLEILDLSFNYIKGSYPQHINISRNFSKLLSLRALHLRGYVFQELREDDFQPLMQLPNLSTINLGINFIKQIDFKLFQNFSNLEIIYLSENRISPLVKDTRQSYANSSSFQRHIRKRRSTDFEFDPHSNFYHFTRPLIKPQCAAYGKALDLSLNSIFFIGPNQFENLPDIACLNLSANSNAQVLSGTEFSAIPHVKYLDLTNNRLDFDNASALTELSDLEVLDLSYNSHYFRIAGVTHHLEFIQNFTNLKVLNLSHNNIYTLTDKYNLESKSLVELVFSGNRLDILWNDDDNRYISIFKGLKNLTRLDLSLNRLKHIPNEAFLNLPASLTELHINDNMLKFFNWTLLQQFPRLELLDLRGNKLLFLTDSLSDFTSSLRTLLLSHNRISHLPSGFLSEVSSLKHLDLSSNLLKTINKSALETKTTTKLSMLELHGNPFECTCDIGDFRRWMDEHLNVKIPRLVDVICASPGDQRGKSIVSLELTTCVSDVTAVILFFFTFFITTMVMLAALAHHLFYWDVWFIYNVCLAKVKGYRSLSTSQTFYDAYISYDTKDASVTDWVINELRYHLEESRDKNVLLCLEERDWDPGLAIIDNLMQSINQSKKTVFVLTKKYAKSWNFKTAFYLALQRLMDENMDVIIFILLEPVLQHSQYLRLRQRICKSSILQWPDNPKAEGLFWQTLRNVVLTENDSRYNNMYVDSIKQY
Protocol: as §1, §2, §3

| Compound | EC50 [1] [nM] | EC50 [2] [nM] |
| --- | --- | --- |
| CCCN(OCCCC(=O)OC(C)(C)C)C(=O)C1=Cc2ccc(S(=O)(=O)N(C)C)cc2N=C(N)C1 [8SO2Bz-2] | 395 | < 2.3 |
| CCCN(OCC)C(=O)C1=Cc2ccc(S(=O)(=O)c3ccc(C(=O)OC)cc3)cc2N=C(N)C1 [8SO2Bz-1] | > 9000 | – |
| CCCN(OCC)C(=O)C1=Cc2ccc(S(=O)(=O)NC)cc2N=C(N)C1 [8SO2Bz-3] | > 5000 | – |
